Reference: PMC8037182, “Solvothermal Synthesis of Multiple Dihydropyrimidinones at a Time as Inhibitors of Eg5” (Molecules, 2021)
pIC50: −log10 of the molar value.

Columns and labels:
T24 cell line = assay: Cytotoxicity MTS assay, T24 cell line; assay type: cell-based; details: for OD490 Mean / OD490 Well 1 / OD490 Well 2 / OD490 Well 3: T24 cell line
Experimental: (§1) The positive compounds (IC50 < 100 μM) obtained from the primary Eg5 motor protein ATPase assay were tested for antiproliferative activity in vitro against Caco-2 cell line, Hela cell line, L929 cell line and T24 cell line by performing MTS assay. Cells were introduced into 96-well plates at a density of 1000 cells per well. After 24 h incubation, the cells were exposed with compounds at final concentrations ranging from 0.5 to 100 µM for 24 h. DMSO was used at a final concentration of 0.025% as blank control, monastrol was used as the positive control. Then 20 µL (CellTiter 96® AQueous One Solution Promega, Madison, WI, USA) reagent was added in each well. After 2 h at 37 °C in a 80% humidified, 5% CO2 atmosphere, the absorbance at 490 nm was recorded using a microplate reader (BIO-RAD iMark^TM). The results were obtained in three independent duplicate experiments. The primary data were shown in Supplementary Materials Tables S4–S7. The IC50 values for these compounds were calculated from a non-linear regression graph plotted between the percentage of cell viability and concentration with SPSS17.0 software.

Caco-2 cell line = assay: Cytotoxicity MTS assay, Caco-2 cell line; assay type: cell-based; details: for OD490 Mean / OD490 Well 1 / OD490 Well 2 / OD490 Well 3: Caco-2 cell line
Experimental: as §1

CCOc1ccccc1C1NC(=S)NC(C)=C1C(=O)Nc1ccc(Cl)cc1 (centres unmarked) [C9]
pIC50 (T24 cell line; Homo sapiens, T-24, MTS assay, 24 h exposure): 3.99 | OD490 Mean (T24 cell line; 0.5μM, first assay): 1.7287 | OD490 Well 1 (T24 cell line; 0.5μM, first assay): 1.7105 | OD490 Well 2 (T24 cell line; 0.5μM, first assay): 1.7618 | OD490 Well 3 (T24 cell line; 0.5μM, first assay): 1.7137 | OD490 Mean (T24 cell line; 0.5μM, second assay): 1.6993 | OD490 Well 1 (T24 cell line; 0.5μM, second assay): 1.7012 | OD490 Well 2 (T24 cell line; 0.5μM, second assay): 1.6854 | OD490 Well 3 (T24 cell line; 0.5μM, second assay): 1.7112 | OD490 Mean (T24 cell line; 0.5μM, third assay): 1.6796 | OD490 Well 1 (T24 cell line; 0.5μM, third assay): 1.7151 | OD490 Well 2 (T24 cell line; 0.5μM, third assay): 1.6985 | OD490 Well 3 (T24 cell line; 0.5μM, third assay): 1.6252 | OD490 Mean (T24 cell line; 1μM, first assay): 1.7475 | OD490 Well 1 (T24 cell line; 1μM, first assay): 1.7891 | OD490 Well 2 (T24 cell line; 1μM, first assay): 1.7321 | OD490 Well 3 (T24 cell line; 1μM, first assay): 1.7213 | OD490 Mean (T24 cell line; 1μM, second assay): 1.6914 | OD490 Well 1 (T24 cell line; 1μM, second assay): 1.6854 | OD490 Well 2 (T24 cell line; 1μM, second assay): 1.6687 | OD490 Well 3 (T24 cell line; 1μM, second assay): 1.7201 | OD490 Mean (T24 cell line; 1μM, third assay): 1.6844 | OD490 Well 1 (T24 cell line; 1μM, third assay): 1.6654 | OD490 Well 2 (T24 cell line; 1μM, third assay): 1.6854 | OD490 Well 3 (T24 cell line; 1μM, third assay): 1.7023 | OD490 Mean (T24 cell line; 10μM, first assay): 1.7610 | OD490 Well 1 (T24 cell line; 10μM, first assay): 1.7529 | OD490 Well 2 (T24 cell line; 10μM, first assay): 1.7204 | OD490 Well 3 (T24 cell line; 10μM, first assay): 1.8096 | OD490 Mean (T24 cell line; 10μM, second assay): 1.6914 | OD490 Well 1 (T24 cell line; 10μM, second assay): 1.6952 | OD490 Well 2 (T24 cell line; 10μM, second assay): 1.7032 | OD490 Well 3 (T24 cell line; 10μM, second assay): 1.6758 | OD490 Mean (T24 cell line; 10μM, third assay): 1.6899 | OD490 Well 1 (T24 cell line; 10μM, third assay): 1.6523 | OD490 Well 2 (T24 cell line; 10μM, third assay): 1.6854 | OD490 Well 3 (T24 cell line; 10μM, third assay): 1.7320 | OD490 Mean (T24 cell line; 25μM, first assay): 1.6722 | OD490 Well 1 (T24 cell line; 25μM, first assay): 1.6737 | OD490 Well 2 (T24 cell line; 25μM, first assay): 1.6555 | OD490 Well 3 (T24 cell line; 25μM, first assay): 1.6875 | OD490 Mean (T24 cell line; 25μM, second assay): 1.5562 | OD490 Well 1 (T24 cell line; 25μM, second assay): 1.5784 | OD490 Well 2 (T24 cell line; 25μM, second assay): 1.5687 | OD490 Well 3 (T24 cell line; 25μM, second assay): 1.5214 | OD490 Mean (T24 cell line; 25μM, third assay): 1.5261 | OD490 Well 1 (T24 cell line; 25μM, third assay): 1.5255 | OD490 Well 2 (T24 cell line; 25μM, third assay): 1.4895 | OD490 Well 3 (T24 cell line; 25μM, third assay): 1.5632 | OD490 Mean (T24 cell line; 50μM, first assay): 1.4241 | OD490 Well 1 (T24 cell line; 50μM, first assay): 1.3950 | OD490 Well 2 (T24 cell line; 50μM, first assay): 1.4682 | OD490 Well 3 (T24 cell line; 50μM, first assay): 1.4091 | OD490 Mean (T24 cell line; 50μM, second assay): 1.2984 | OD490 Well 1 (T24 cell line; 50μM, second assay): 1.3242 | OD490 Well 2 (T24 cell line; 50μM, second assay): 1.3021 | OD490 Well 3 (T24 cell line; 50μM, second assay): 1.2688 | OD490 Mean (T24 cell line; 50μM, third assay): 1.2717 | OD490 Well 1 (T24 cell line; 50μM, third assay): 1.2854 | OD490 Well 2 (T24 cell line; 50μM, third assay): 1.2312 | OD490 Well 3 (T24 cell line; 50μM, third assay): 1.2985 | OD490 Mean (T24 cell line; 100μM, first assay): 1.1300 | OD490 Well 1 (T24 cell line; 100μM, first assay): 1.1347 | OD490 Well 2 (T24 cell line; 100μM, first assay): 1.0869 | OD490 Well 3 (T24 cell line; 100μM, first assay): 1.1684 | OD490 Mean (T24 cell line; 100μM, second assay): 1.0488 | OD490 Well 1 (T24 cell line; 100μM, second assay): 1.1133 | OD490 Well 2 (T24 cell line; 100μM, second assay): 1.0101 | OD490 Well 3 (T24 cell line; 100μM, second assay): 1.0230 | OD490 Mean (T24 cell line; 100μM, third assay): 1.0526 | OD490 Well 1 (T24 cell line; 100μM, third assay): 1.0120 | OD490 Well 2 (T24 cell line; 100μM, third assay): 1.1123 | OD490 Well 3 (T24 cell line; 100μM, third assay): 1.0334 | OD490 Mean (Caco-2 cell line; 0.5μM, first assay): 0.6579 | OD490 Well 1 (Caco-2 cell line; 0.5μM, first assay): 0.6600 | OD490 Well 2 (Caco-2 cell line; 0.5μM, first assay): 0.6452 | OD490 Well 3 (Caco-2 cell line; 0.5μM, first assay): 0.6685 | OD490 Mean (Caco-2 cell line; 0.5μM, second assay): 0.6430 | OD490 Well 1 (Caco-2 cell line; 0.5μM, second assay): 0.6499 | OD490 Well 2 (Caco-2 cell line; 0.5μM, second assay): 0.6217 | OD490 Well 3 (Caco-2 cell line; 0.5μM, second assay): 0.6574 | OD490 Mean (Caco-2 cell line; 0.5μM, third assay): 0.6809 | OD490 Well 1 (Caco-2 cell line; 0.5μM, third assay): 0.6676 | OD490 Well 2 (Caco-2 cell line; 0.5μM, third assay): 0.6999 | OD490 Well 3 (Caco-2 cell line; 0.5μM, third assay): 0.6752 | OD490 Mean (Caco-2 cell line; 1μM, first assay): 0.6557 | OD490 Well 1 (Caco-2 cell line; 1μM, first assay): 0.6594 | OD490 Well 2 (Caco-2 cell line; 1μM, first assay): 0.6683 | OD490 Well 3 (Caco-2 cell line; 1μM, first assay): 0.6393 | OD490 Mean (Caco-2 cell line; 1μM, second assay): 0.6328 | OD490 Well 1 (Caco-2 cell line; 1μM, second assay): 0.6398 | OD490 Well 2 (Caco-2 cell line; 1μM, second assay): 0.6387 | OD490 Well 3 (Caco-2 cell line; 1μM, second assay): 0.6200 | OD490 Mean (Caco-2 cell line; 1μM, third assay): 0.6578 | OD490 Well 1 (Caco-2 cell line; 1μM, third assay): 0.6898 | OD490 Well 2 (Caco-2 cell line; 1μM, third assay): 0.6914 | OD490 Well 3 (Caco-2 cell line; 1μM, third assay): 0.5921 | OD490 Mean (Caco-2 cell line; 10μM, first assay): 0.6390 | OD490 Well 1 (Caco-2 cell line; 10μM, first assay): 0.5664 | OD490 Well 2 (Caco-2 cell line; 10μM, first assay): 0.6539 | OD490 Well 3 (Caco-2 cell line; 10μM, first assay): 0.6968 | OD490 Mean (Caco-2 cell line; 10μM, second assay): 0.5939 | OD490 Well 1 (Caco-2 cell line; 10μM, second assay): 0.5553 | OD490 Well 2 (Caco-2 cell line; 10μM, second assay): 0.5431 | OD490 Well 3 (Caco-2 cell line; 10μM, second assay): 0.6832 | OD490 Mean (Caco-2 cell line; 10μM, third assay): 0.6521 | OD490 Well 1 (Caco-2 cell line; 10μM, third assay): 0.6349 | OD490 Well 2 (Caco-2 cell line; 10μM, third assay): 0.6214 | OD490 Well 3 (Caco-2 cell line; 10μM, third assay): 0.7001 | OD490 Mean (Caco-2 cell line; 25μM, first assay): 0.5635 | OD490 Well 1 (Caco-2 cell line; 25μM, first assay): 0.5780 | OD490 Well 2 (Caco-2 cell line; 25μM, first assay): 0.5488 | OD490 Well 3 (Caco-2 cell line; 25μM, first assay): 0.5637 | OD490 Mean (Caco-2 cell line; 25μM, second assay): 0.5347 | OD490 Well 1 (Caco-2 cell line; 25μM, second assay): 0.5232 | OD490 Well 2 (Caco-2 cell line; 25μM, second assay): 0.5214 | OD490 Well 3 (Caco-2 cell line; 25μM, second assay): 0.5594 | OD490 Mean (Caco-2 cell line; 25μM, third assay): 0.6041 | OD490 Well 1 (Caco-2 cell line; 25μM, third assay): 0.6789 | OD490 Well 2 (Caco-2 cell line; 25μM, third assay): 0.5214 | OD490 Well 3 (Caco-2 cell line; 25μM, third assay): 0.6121 | OD490 Mean (Caco-2 cell line; 50μM, first assay): 0.4407 | OD490 Well 1 (Caco-2 cell line; 50μM, first assay): 0.4378 | OD490 Well 2 (Caco-2 cell line; 50μM, first assay): 0.4511 | OD490 Well 3 (Caco-2 cell line; 50μM, first assay): 0.4331 | OD490 Mean (Caco-2 cell line; 50μM, second assay): 0.4117 | OD490 Well 1 (Caco-2 cell line; 50μM, second assay): 0.3953 | OD490 Well 2 (Caco-2 cell line; 50μM, second assay): 0.4678 | OD490 Well 3 (Caco-2 cell line; 50μM, second assay): 0.3721 | OD490 Mean (Caco-2 cell line; 50μM, third assay): 0.4510 | OD490 Well 1 (Caco-2 cell line; 50μM, third assay): 0.4963 | OD490 Well 2 (Caco-2 cell line; 50μM, third assay): 0.3954 | OD490 Well 3 (Caco-2 cell line; 50μM, third assay): 0.4613 | OD490 Mean (Caco-2 cell line; 100μM, first assay): 0.3208 | OD490 Well 1 (Caco-2 cell line; 100μM, first assay): 0.2950 | OD490 Well 2 (Caco-2 cell line; 100μM, first assay): 0.3313 | OD490 Well 3 (Caco-2 cell line; 100μM, first assay): 0.3360 | OD490 Mean (Caco-2 cell line; 100μM, second assay): 0.2995 | OD490 Well 1 (Caco-2 cell line; 100μM, second assay): 0.2898 | OD490 Well 2 (Caco-2 cell line; 100μM, second assay): 0.3121 | OD490 Well 3 (Caco-2 cell line; 100μM, second assay): 0.2965 | OD490 Mean (Caco-2 cell line; 100μM, third assay): 0.3309 | OD490 Well 1 (Caco-2 cell line; 100μM, third assay): 0.3633 | OD490 Well 2 (Caco-2 cell line; 100μM, third assay): 0.2374 | OD490 Well 3 (Caco-2 cell line; 100μM, third assay): 0.3921 | pIC50 (Caco-2 cell line; Homo sapiens, Caco-2, MTS assay, 24 h exposure): 4.18
